Read-outs that look alike come from different tables or passages of the source.
Legend:
[1] = Method: These saccharides can be used alone or in a mixture of two or more of these saccharides, and can usually be contained in an amount of about 0.1 to about 20% by weight, preferably in an amount of about 0.5 to about 10% by weight in the present tablet.
Purified water at 25° C. (20 ml) was put into a beaker, and thereto was added each saccharide under stirring. Xylitol, sorbitol, glucose and sucrose were added in portions of 1 g, and erythritol was added in portions of 0.5 g, and lactose and mannitol were added in portions of 0.1 g, each. The mixture was stirred for one hour, and the dissolved amount of each saccharide was determined. The amount dissolving in 100 ml of water was converted and used as solubility of the saccharide in the present specification.

[2] = in 100 ml of purified water at about 25° C.; Merck Index, 12th ed., 10220 (1996); cited from earlier work

Row | solubility [1] | Structure (SMILES) | solubility [2]
1 | about 47.5 g | OC[C@@H](O)[C@@H](O)CO [erythritol] | –
2 | about 130 g | OC[C@@H](O)[C@@H](O)[C@H](O)[C@@H](O)CO [sorbitol] | –
3 | about 170 g | OC[C@H]1O[C@@](CO)(O[C@H]2O[C@H](CO)[C@@H](O)[C@H](O)[C@H]2O)[C@@H](O)[C@@H]1O [sucrose] | –
4 | about 135 g | OC[C@@H](O)[C@H](O)[C@@H](O)CO [xylitol] | –
5 | – | O=C[C@H](O)[C@@H](O)[C@H](O)CO [xylose] | about 125 g

— patent US6413541B1, “Disintegrating tablet in oral cavity and production thereof” (Dainippon Pharmaceutical Co., Ltd., priority 2000, dated 2002)
